The text below walks through data of ChEMBL document CHEMBL5136977, “Discovery of 1-(5-(1H-benzo[d]imidazole-2-yl)-2,4-dimethyl-1H-pyrrol-3-yl)ethan-1-one derivatives as novel and potent bromodomain and extra-terminal (BET) inhibitors with anticancer efficacy” (Eur J Med Chem, 2022).

The subject of data set [1] is MV4-11. Nature of the data set: Antiproliferative activity against human MV4-11 cells assessed as cell growth inhibition incubated for 72 hrs by CellTiter-Glo assay. The format is functional, cell-based. The following applies: MV4-11, 72 h.
Data set [2] addresses T1, Bromodomain-containing protein 4 (Homo sapiens, UniProt O60885). As to the kind of experiment: Inhibition of recombinant his tagged BRD4 BD1 (unknown origin) at 2 uM by Alpha screen assay relative to control.
The test system of data set [3] is MV4-11. As to the kind of experiment: Antiproliferative activity against human MV4-11 cells assessed as cell growth inhibition at 1 uM incubated for 72 hrs by CellTiter-Glo assay relative to control. The format is functional.
Data set [4] addresses T1, Bromodomain-containing protein 4. As to the kind of experiment: Inhibition of Alexa647 labelled MS417 binding to his tagged BRD4 BD1 (unknown origin) by TR-FRET assay.
The subject of the next data set is HCT-15. As to the kind of experiment: Antiproliferative activity against human HCT-15 cells assessed as cell growth inhibition measured after 72 hrs by CellTiter-Glo assay. Format: functional.
The test system of the next data set is NCI-H522. Nature of the data set: Antiproliferative activity against human NCI-H522 cells assessed as cell growth inhibition measured after 72 hrs by CellTiter-Glo assay. Format: functional.
The test system of a further data set is HL-60(TB). As to the kind of experiment: Antiproliferative activity against human HL-60(TB) cells assessed as cell growth inhibition measured after 72 hrs by CellTiter-Glo assay. Format: functional.
The next data set relates to MDA-MB-468. Nature of the data set: Antiproliferative activity against human MDA-MB-468 cells assessed as cell growth inhibition measured after 72 hrs by CellTiter-Glo assay. The format is functional.
The test system of data set [5] is MV4-11. As to the kind of experiment: Antitumor activity against human MV4-11 cells xenografted BALB/c nude mouse model assessed as tumor growth inhibition at 20 mg/kg, po QD administered for 28 consecutive days. The format is functional. The conditions noted are these: MV4-11, 672 h, time 28 day, read-out: TGI.
For the next data set, the system named is UACC-62. Nature of the data set: Antiproliferative activity against human UACC-62 cells assessed as cell growth inhibition measured after 72 hrs by CellTiter-Glo assay. The format is functional.
In another data set the test system is CAKI-1. Nature of the data set: Antiproliferative activity against human CAKI-1 cells assessed as cell growth inhibition measured after 72 hrs by CellTiter-Glo assay. The format is functional.
The test system of the next data set is SNB-75. As to the kind of experiment: Antiproliferative activity against human SNB-75 cells assessed as cell growth inhibition measured after 72 hrs by CellTiter-Glo assay. Format: functional.
The nature of data set [6]: Metabolic stability in rat liver microsomes assessed as intrinsic clearance incubated for 1 hr by LC-MS/MS analysis. Format: ADME, Microsome. The following applies: read-out: CLH.
Data set [7] in a line: Metabolic stability in dog liver microsomes assessed as elimination half life incubated for 1 hr by LC-MS/MS analysis. The format is ADME, Canis lupus familiaris, Microsome. The following applies: read-out: beta t1/2.
A short description of data set [8]: Metabolic stability in rat liver microsomes assessed as elimination half life incubated for 1 hr by LC-MS/MS analysis. Format: ADME, Microsome. The conditions noted are these: read-out: beta t1/2.
The nature of data set [9]: Metabolic stability in dog liver microsomes assessed as intrinsic clearance incubated for 1 hr by LC-MS/MS analysis. The format is ADME, Canis lupus familiaris, Microsome. The conditions noted are these: read-out: CLH.
Data set [10] in a line: Metabolic stability in monkey liver microsomes assessed as elimination half life incubated for 1 hr by LC-MS/MS analysis. Format: ADME, Macaca mulatta, Microsome. The following applies: rhesus monkey, read-out: beta t1/2.
Data set [11] is described as follows: Metabolic stability in rat liver assessed as intrinsic clearance incubated for 1 hr by LC-MS/MS analysis. The format is ADME, tissue-based. The conditions noted are these: read-out: CLH.
Data set [12] is described as follows: Metabolic stability in human liver assessed as intrinsic clearance incubated for 1 hr by LC-MS/MS analysis. The following applies: read-out: CLH. The format is ADME, tissue-based.
Data set [13] in a line: Metabolic stability in monkey liver assessed as intrinsic clearance incubated for 1 hr by LC-MS/MS analysis. Format: ADME, tissue-based, Macaca mulatta. The conditions noted are these: rhesus monkey, read-out: CLH.
Data set [14] is described as follows: Metabolic stability in dog liver assessed as intrinsic clearance incubated for 1 hr by LC-MS/MS analysis. The format is ADME, tissue-based, Canis lupus familiaris. The conditions noted are these: read-out: CLH.
Data set [15] is described as follows: Metabolic stability in monkey liver microsomes assessed as intrinsic clearance incubated for 1 hr by LC-MS/MS analysis. The conditions noted are these: rhesus monkey, read-out: CLH. The format is ADME, Macaca mulatta, Microsome.
Data set [16] is described as follows: Metabolic stability in human liver microsomes assessed as intrinsic clearance incubated for 1 hr by LC-MS/MS analysis. The format is ADME, Microsome. The conditions noted are these: read-out: CLH.
A short description of data set [17]: Metabolic stability in human liver microsomes assessed as elimination half life incubated for 1 hr by LC-MS/MS analysis. Format: ADME, Microsome. The conditions noted are these: read-out: beta t1/2.

pIC50: −log10 of the molar value.

Regarding `CC(=O)c1c(C)[nH]c(-c2nc3cc(N4CCCCC4)ccc3[nH]2)c1C`, the pIC50 in the data set with MV4-11 [1] was 5.74. Still for that read-out and setting: to `CCOc1ccc(-c2c(-c3nc4cc(N5CCN(C)CC5)ccc4[nH]3)[nH]c(C)c2C(C)=O)cc1` belongs 6.72; to `Cc1sc2c(c1C)C(c1ccc(Cl)cc1)=N[C@@H](CC(=O)OC(C)(C)C)c1nnc(C)n1-2`, 6.80. For the compound `CC(=O)c1c(C)[nH]c(-c2cnc3ccccc3c2)c1C`, in data set [2], the inhibition turned out to be 85.5%.

Turning to `CC(=O)c1c(C)[nH]c(-c2nc3cc(N4CCC(CO)CC4)ccc3[nH]2)c1C`, the pIC50 with MV4-11 [1] is 5.81. On the same count and under the same terms, the value for `CCc1c(-c2nc3cc(N4CCN(C)CC4)ccc3[nH]2)[nH]c(C)c1C(C)=O` was 6.21. As to `CC(=O)c1c(C)[nH]c(-c2nc3cc(N4CCN(C)CC4)ccc3[nH]2)c1-c1ccc2c(c1)OCO2`, the pIC50 with MV4-11 [1] is 6.79.

As to `CC(=O)c1c(C)[nH]c(-c2ccc3cc[nH]c3c2)c1C`, in data set [2], the inhibition is 79.5%. As for `COc1ccc(-c2c(-c3nc4cc(N5CCN(C)CC5)ccc4[nH]3)[nH]c(C)c2C(C)=O)cc1`, the pIC50 in the data set on MV4-11 [1] is 6.65. The same measure, in the same setting: to `CC(=O)c1c(C)[nH]c(-c2nc3cc(N4CCN(C)CC4)ccc3[nH]2)c1-c1ccc(N(C)C)cc1` belongs 6.72.

With `CCN(CC)c1ccc2[nH]c(-c3[nH]c(C)c(C(C)=O)c3C)nc2c1`, in the data set on MV4-11 [3], the inhibition at 1 µM amounted to 19.7%. With `COc1ccc(-c2c(-c3nc4cc(N5CCN(C)CC5)ccc4[nH]3)[nH]c(C)c2C(C)=O)cc1OC`, in the data set on MV4-11 [1], the pIC50 was 6.37. Turning to `CCS(=O)(=O)Nc1ccc(Oc2ccc(F)cc2F)c(-c2cn(C)c(=O)c3[nH]ccc23)c1` [MIVEBRESIB], the pIC50 in data set [4] is 7.96.

Consider `Cc1sc2c(c1C)C(c1ccc(Cl)cc1)=N[C@@H](CC(=O)Nc1ccc(O)cc1)c1nnc(C)n1-2` [BIRABRESIB], for which the GI50 with HCT-15 turned out to be 0.179 µM; in the data set with NCI-H522 it was 0.262 µM; with HL-60(TB) it was 0.179 µM; in the data set with MDA-MB-468, 0.212 µM; in the data set on UACC-62, 0.162 µM; in the data set on CAKI-1, 0.0946 µM. Further, the GI50 in the data set with SNB-75 worked out at 0.0296 µM. Besides, in the data set with MV4-11 [5], the inhibition in vivo at 20 mg/kg was 63.5%. Turning to `CC(=O)c1c(C)[nH]c(-c2nc3cc(N4CCN(C)CC4)ccc3[nH]2)c1C`, the pIC50 in the data set on MV4-11 [1] is 6.16. Turning to `CC(=O)c1c(C)[nH]c(-c2nc3c([nH]2)=CCC(Nc2ccnc(Cl)n2)C=3)c1C` (stereo not drawn), the inhibition in [2] amounted to 91.1%. As to `CC(=O)c1c(C)[nH]c(-c2nc3cc(N4CCN(C)CC4)ccc3[nH]2)c1-c1cnn(C)c1`, the inhibition at 1 µM in the data set on MV4-11 [3] was 53%. As for `COc1ccc(-c2c(-c3nc4cc(N5CCN(C)CC5)ccc4[nH]3)[nH]c(C)c2C(C)=O)cc1F`, in the data set with MV4-11 [1], the pIC50 is 6.66. `CC(=O)c1c(C)[nH]c(-c2nc3cc(N4CCN(C)CC4)ccc3[nH]2)c1-c1ccccc1Cl`: the pIC50 in the data set on MV4-11 [1] is 6.36. On the same count and under the same terms, the value for `CC(=O)c1c(C)[nH]c(-c2nc3cc(N4CCN(C)CC4)ccc3[nH]2)c1-c1ccc(Cl)cc1` was 6.54; that for `CC(=O)c1c(C)[nH]c(-c2nc3cc(N4CCN(C)CC4)ccc3[nH]2)c1-c1ccc2ccccc2c1` was 6.25. Regarding `CC(=O)c1c(C)[nH]c(-c2ccc3c4ccccc4n(C)c3c2)c1C`, the inhibition in [2] is 84%.

As for `CCS(=O)(=O)N1CCN(c2ccc3[nH]c(-c4[nH]c(C)c(C(C)=O)c4C)nc3c2)CC1`, the pIC50 with MV4-11 [1] was 5.79.

As for `CC(=O)c1c(C)[nH]c(-c2nc3cc(N4CCN(C)CC4)ccc3[nH]2)c1C(C)C`, the inhibition in [2] stood at 98.9%.

Consider `CC(=O)c1c(C)[nH]c(-c2nc3cc(N4CCOCC4)ccc3[nH]2)c1-c1ccccc1`, for which the microsomal CLint was determined as 68 µL/min/mg in [6], 31.1 µL/min/mg in data set [9], 43.8 µL/min/mg in data set [15] and 22.6 µL/min/mg in data set [16]. For the same compound, the half-life in data set [7] came out at 44.6 min; in data set [8], 20.4 min; in data set [10], 31.6 min; in [17] it was 61.4 min. In addition, the CLint scaled in data set [11] was determined as 122 mL/min/kg; in data set [12], 21.4 mL/min/kg; in [13], 63.1 mL/min/kg; in data set [14], 44.8 mL/min/kg. The pIC50 in the data set with MV4-11 [1] was 6.50. For `CC(=O)c1c(C)[nH]c(-c2nc3cc(N4CCOCC4)ccc3[nH]2)c1C`, the inhibition at 1 µM in the data set on MV4-11 [3] was 21.2%. Consider `COc1cccc(-c2c(-c3nc4cc(N5CCN(C)CC5)ccc4[nH]3)[nH]c(C)c2C(C)=O)c1`, for which the pIC50 in the data set on MV4-11 [1] was 6.55.

Turning to `COc1ccccc1-c1c(-c2nc3cc(N4CCN(C)CC4)ccc3[nH]2)[nH]c(C)c1C(C)=O`, the inhibition at 1 µM in the data set with MV4-11 [3] was determined as 25.3%. With `CC(=O)c1c(C)[nH]c(-c2nc3cc(N4CCN(C)CC4)ccc3[nH]2)c1-c1cccc(Cl)c1`, the pIC50 with MV4-11 [1] is 6.49. Regarding `CC(=O)c1c(C)[nH]c(-c2nc3ccccc3s2)c1C`, the inhibition in data set [2] is 73.6%.

In the case of `CC(=O)c1c(C)[nH]c(-c2nc3cc(N4CCN(C)CC4)ccc3[nH]2)c1C1CCCCC1`, the inhibition in data set [2] was 79%. For `CC(=O)c1c(C)[nH]c(-c2nc3cc(N4CCN(C)CC4)ccc3[nH]2)c1-c1ccc(C)cc1`, the pIC50 in the data set with MV4-11 [1] was 6.75.

On to `CC(=O)c1c(C)[nH]c(-c2nc3cc(N4CCN(C)CC4)ccc3[nH]2)c1-c1ccc2c(c1)OCCO2`, for which the pIC50 with MV4-11 [1] was 6.80.

For `CSc1ccc(-c2c(-c3nc4cc(N5CCN(C)CC5)ccc4[nH]3)[nH]c(C)c2C(C)=O)cc1`, the pIC50 with MV4-11 [1] was 6.73.
